Source: US11485727B2, “N-methyl, n-(6-(methoxy)pyridazin-3-yl) amine derivatives as autotaxin (ATX) modulators” (Boehringer Ingelheim International GmbH, priority 2019, dated 2022)

Target: ATX in human whole blood (Homo sapiens (Human), UniProt Q13822)
Assay: Assay B: Whole-Blood ATX Assay
Type: biochemical
Conditions: not given

| Compound | IC50 |
| --- | --- |
| CC(=O)N1CC2CCC(C1)N2c1ccc(CNc2ccc(OCc3ccc(C(F)(F)F)nc3)nn2)cc1 [Example 2.19] | 2 nM |

Same assay, conditions: human whole-blood, 1 h at 37° C., formation of 18:2 LPA; read-out: Human whole blood LPA IC50

| Compound | IC50 |
| --- | --- |
| CC(=O)N1CC2(C1)CN(c1ccc(CNc3ccc(OCc4ccc(C(F)(F)F)nc4)nn3)cc1F)C2 [Example 2.9] | 4.1 nM |
| CC(=O)N[C@H]1[C@@H]2CN(c3ccc(CNc4ccc(OCc5ccc(C(F)(F)F)nc5)nn4)cc3)C[C@@H]21 [Example 2.11] | 4 nM |
| CC(=O)N1CCN(c2ccc(CNc3ccc(OCc4ccc(C(F)(F)F)nc4)nn3)cc2)CC1 [Example 2.2] | 4.7 nM |
| CC(=O)N(C)C1CCN(c2ccc(CNc3ccc(OCc4ccc(C(F)(F)F)nc4)nn3)cc2)CC1 [Example 2.1, N-methyl-N-[1-(4-{[(6-{[6-(trifluoromethyl)pyridin-3-yl]methoxy}pyridazin-3-yl)amino]methyl}phenyl)piperidin-4-yl]acetamide] | 4.7 nM |
| CC(=O)N1CCC2(CC1)CN(c1ccc(CNc3ccc(OCc4ccc(C(F)(F)F)nc4)nn3)cn1)C2 [Example 2.17] | 3.5 nM |
| CC(=O)N1C[C@@H]2[C@H](C1)[C@H]1CN(c3ccc(CNc4ccc(OCc5ccc(C(F)(F)F)nc5)nn4)cc3)C[C@@H]21 [Example 5, 1-((3aR,3bS,6aR,6bS)-5-(4-(((6-((6-(trifluoromethyl)pyridin-3-yl)methoxy)pyridazin-3-yl)amino)methyl)phenyl)octahydrocyclobuta[1,2-c:3,4-c′]dipyrrol-2(1H)-yl)ethan-1-one] | 7.5 nM |
| CC(=O)N1CCN(c2ccc(CNc3ccc(OCc4ccc(C(F)F)nc4)nn3)cc2)CC1 [Example 3, 1-[4-(4-{[(6-{[6-(Difluoromethyl)pyridin-3-yl]methoxy}pyridazin-3-yl)amino]methyl}-phenyl)piperazin-1-yl]ethan-1-one] | 1.9 nM |
| CC(=O)N1CC2CC1CN2c1ccc(CNc2ccc(OCc3ccc(C(F)F)nc3)nn2)cc1 (stereo not drawn) [Example 2.6] | 3.2 nM |
| CC(=O)N1CCC2(CC1)CN(c1ccc(CNc3ccc(OCc4ccc(C(F)F)nc4)nn3)cc1)C2 [Example 1.6] | 8.7 nM |
| FC(F)(F)c1ccc(COc2ccc(NCc3ccc(N4CCN(C5COC5)CC4)cc3)nn2)cn1 [Example 2.8] | 2.4 nM |
| CC(=O)N1CC2(C1)CN(c1ccc(CNc3ccc(OCc4ccc(C(F)(F)F)nc4)nn3)c(F)c1)C2 [Example 2.21] | 1.4 nM |
| CC(=O)N1CCN(c2ccc(CNc3ccc(OCc4ccc(C(F)F)nc4)nn3)c(C(F)(F)F)c2)CC1 [Example 2.7] | 7 nM |
| CC(=O)N1CCN(c2ccc(CNc3ccc(OCc4ccc(C(F)F)nc4)nn3)nc2)CC1 [Example 2.4] | 6.8 nM |
| CC(=O)N1CC2CC1CN2c1ccc(CNc2ccc(OCc3ccc(C(F)(F)F)nc3)nn2)cc1 (stereo not drawn) [Example 2.23] | 3.6 nM |
| CC(=O)N1CCC2(CC1)CN(c1ccc(CNc3ccc(OCc4ccc(C(F)(F)F)nc4)nn3)cc1)C2 [Example 2.22] | 3.9 nM |
| CC(=O)N1CC2(C1)CN(c1ccc(CNc3ccc(OCc4ccc(C(F)(F)F)nc4)nn3)cc1)C2 [Example 1.1, 1-(6-(4-(((6-((6-(trifluoromethyl)pyridin-3-yl)methoxy)pyridazin-3-yl)amino)methyl)phenyl)-2,6-diazaspiro[3.3]heptan-2-yl)ethan-1-one] | 1.7 nM |

| Compound | IC50 |
| --- | --- |
| CN1CC2(CC1=O)CN(c1ccc(CNc3ccc(OCc4ccc(C(F)F)nc4)nn3)cc1)C2 [Example 1.5] | 2 nM |
| FC(F)c1ccc(COc2ccc(NCc3ccc(N4CCN(C5COC5)CC4)cc3)nn2)cn1 [Example 2.10] | 2.2 nM |
| CC(=O)N1CCN(c2ccc(CNc3ccc(OCc4ccc(C(F)F)nc4)nn3)cc2)CC1(C)C [Example 1.7] | 12.4 nM |
| CC(=O)N1CC2(C1)CN(c1ccc(CNc3ccc(OCc4ccc(C(F)F)nc4)nn3)cc1)C2 [Example 1.2] | 1 nM |
| CC(=O)N1CCN(c2ccc(CNc3ccc(OCc4cnc(C(F)F)c(F)c4)nn3)cc2)CC1 [Example 2.12] | 4.3 nM |
| CC(=O)N1CCN(c2ccc(CNc3ccc(OCc4ccc(C(F)(F)F)nc4)nn3)cn2)CC1 [Example 2.5] | 4 nM |
| CC(=O)N1CCN(c2ccc(CNc3ccc(OCc4ccc(C(F)F)nc4)nn3)cn2)CC1 [Example 2.3] | 4.4 nM |
| CC(=O)N1CCN(c2ccc(CNc3ccc(OCc4ccc(C(F)F)nc4)nn3)c(F)c2)CC1 [Example 1.4] | 2.8 nM |
| CC(=O)N1CC[C@@H]2CN(c3ccc(CNc4ccc(OCc5ccc(C(F)(F)F)nc5)nn4)cc3)C[C@@H]2CC1 [Example 4] | 7.1 nM |
| CC(=O)N1C[C@@H]2CN(c3ccc(CNc4ccc(OCc5ccc(C(F)F)nc5)nn4)cc3)C[C@@H]2C1 [Example 2.14] | 2.8 nM |
| CC(=O)N1CCN(c2ccc(CNc3ccc(OCc4ccc(C(F)(F)F)nc4)nn3)nc2)CC1 [Example 2.15] | 9.3 nM |
| CC(=O)N1CCN(c2ccc(CNc3ccc(OCc4ccc(C(F)F)nc4)nn3)cc2F)CC1 [Example 1.3] | 1.6 nM |
| CC(=O)N1CC2CCC1CN2c1ccc(CNc2ccc(OCc3ccc(C(F)(F)F)nc3)nn2)cc1 (stereo not drawn) [Example 2.20] | 3.7 nM |
| CC(=O)N1CCC2(CC1)CN(c1ccc(CNc3ccc(OCc4ccc(C(F)F)nc4)nn3)nc1)C2 [Example 2.16] | 5.1 nM |
| CC(=O)N1CCC2(CC1)CN(c1ccc(CNc3ccc(OCc4ccc(C(F)F)nc4)nn3)cn1)C2 [Example 2.18] | 4.1 nM |

System: LPA levels
Assay: not given
Conditions: as disclosed in C. Kuttruff, et al.; cited from earlier work

| Compound | LPA levels in vivo |
| --- | --- |
| O=C(NC[C@@H]1[C@H]2CN(C(=O)OCc3cc(C(F)(F)F)cc(C(F)(F)F)c3)C[C@@H]12)c1ccc2[nH]nnc2c1 | significantly reduces |
